The values below come from patent US12728111B2, “Electrophilic compounds and electrophilic prodrugs for treating aneurysm” (University of Pittsburgh—Of the Commonwealth System of …, priority 2020, dated 2026).

Experiment [1] deals with oxLDL-induced Il1b and Mmp9 expression in BMDMs. The experiment can be described thus: Real-time PCR of oxLDL-induced pro-inflammatory genes in BMDMs. It counts as cell-based, mouse. The following applies: PPARγ antagonist or siRNA given with NO2—OA. Here is the method:
FIG. 3. NO2—OA prevents oxLDL-induced NFκB activation and pro-inflammatory cytokine production. Primary BMDMs were pretreated with vehicle, OA (2.5 μM) or NO2—OA (2.5 μM) for 1 h, followed by treatment of oxLDL (50 to 100 μg/ml) for the indicated times. (A, B) Nuclear (A) and cytoplasmic protein (B) fractions were isolated 1 h after oxLDL treatment and subjected to western blot with antibodies against p65, lamin a/c (nuclear marker) and GAPDH (cytosolic marker). Representative western blot images of three independent experiments are shown. (C) Quantification of the p65 nuclear to cytoplasmic ratio by image studio (normalized by the internal control, n=3). (D-F) Following 8 h of oxLDL treatment, levels of IL6, MCP1 and TNFα in the cell medium were measured by ELISA (n=4). (G) Real-time PCR quantification of gene expression levels of IL1b and Mmp9 in total mRNA extracted from the BMDMs. (C) Ordinary one-way ANOVA followed by Tukey's test was performed. As of (D-F), the basal level contains several non-detectable values, so ordinary one-way ANOVA followed by correction of FDR were performed for the oxLDL-treated groups only. Ordinary one-way ANOVA followed by Tukey's test was performed for (G). Data presented as mean±SEM. A p<0.05 for both the main test and post hoc test was considered statistically significant.
Mice suprarenal aortas were collected after the measurement of their diameter. Human aortic aneurysm samples were obtained from the Department of Cardiac Surgery at the University of Michigan. Samples from humans and mice were snap-frozen in liquid nitrogen for later processing. RNA from tissue was extracted using TRIzol (#15596018, Invitrogen). RNA from cells was isolated with the RNeasy Mini Kit (#74106, QIAGEN). SuperScript™ III First-Strand Synthesis System (#18080051, Invitrogen) was used to reverse-transcribe mRNA into cDNA. Gene expression was quantified in triplicates by quantitative real-time PCR (qPCR) using IQ SYBR Green Supermix (#1708882, Bio-Rad) with the indicated gene primers.
In general terms: Quantitative PCR measures a nucleic acid by following its amplification.

Experiment [2] has as its system AngII/PCSK9-induced AAA mouse model. As to the kind of experiment: Ang II plus hypercholesterolemia (AngII/PCSK9) induced AAA mouse model. It counts as in vivo. Here is the method: FIG. 1. Characterization of the protective effect of NO2—OA (10-nitro-octadec-9-enoic acid) in the Ang II plus hypercholesterolemia-induced AAA mouse model. (A) Schematic illustration of the in vivo experimental design. Ten week old male C57BL/6 mice were IP injected with AAV carrying PCSK9 gain-of-function (D377Y) mutation and fed a western diet. After two weeks, each mouse was implanted with a pump delivering AngII at a rate of 1,500 ng/kg/min plus an additional pump containing either PEG-400 (vehicle), OA or NO2—OA with a delivery rate of 5 mg/kg/day (n=25 to 30 per group) and carried to the endpoint for another four weeks. Mice with ruptured aorta within the first week or with total plasma cholesterol less than 250 mg/dl were excluded from the study. (B) Representative morphological differences of the abdominal aorta. (C) AAA incidence calculated by using 1.2 mm as the cutoff diameter indicated by the dotted line in (D). (D) Average maximal diameter of the suprarenal aorta region. (E) Representative H&E and VVG staining of the paraffin-embedded suprarenal aortic cross-sections (5 μm). (F) Grade of elastic fiber degradation in the aorta (1 to 4). A 2×3 Fisher's exact test followed by posthoc test was performed for (C). For (D) and (F), the Kruskal-Wallis test followed by Dunn's multiple comparisons was performed. Continuous data are presented as mean±SEM. Scale bar=20 μm for (E). A p<0.05 for both the main test and post hoc test was considered statistically significant.
Ten weeks old male C57BL/6J mice were purchased from The Jackson Laboratory. The murine AAA model induced by AngII/PCSK9 gain-of-function mutation is well-established. After acclimation for 1 week, mice were fed a western diet (TD.88137, Envigo) and intraperitoneally injected with 2×1011 genomic copies of AAV-PCSK9.D377Y (AAV serotype 8, Penn Vector Core). Two weeks later, each mouse was subcutaneously implanted with two osmotic pumps (Model #2004, Alzet). One was loaded with AngII (#H-1706, Bachem), releasing at a rate of 1,500ng/kg/min, while the other one was loaded with PEG-400, OA or NO2—OA at a delivery rate of 5 mg/kg/day for OA or NO2—OA. After 4-weeks infusion, mice were euthanized and the maximal outer diameter of the suprarenal aorta was assessed with a digital caliper by a third person blinded to the treatment. Suprarenal aortas with a maximal diameter ≥50% larger than standard size (≥1.2 mm) were considered as abdominal aortic aneurysms. Mice dead within the first week of pump implantation or with a serum total cholesterol level less than 250 mg/dL were excluded from the study. All animal procedures were performed following the protocols approved by the Institutional Animal Care & Use Committee (IACUC) at the University of Michigan.
H&E and Verhoeff Van Gieson staining of paraffin or frozen sections of mouse suprarenal abdominal aorta were performed by the In-Vivo Animal Core at the University of Michigan. Elastin degradation grade was calculated as we previously reported.

As for `O=C(Nc1ccccc1)c1cc([N+](=O)[O-])ccc1Cl` [GW9662, reference compound], in experiment [1], the “protective effect of NO2—OA on oxLDL-induced Il1b and Mmp9 expression” value was “partially blocked”.

For the compound `CCCCCCCCC=CCCCCCCCC(=O)O` [OA, octadec-9-enoic acid, reference compound], the AAA incidence in experiment [2] (5 mg/kg/day subcutaneous infusion, after 4 weeks, cutoff diameter 1.2 mm) was 69.6%. In experiment [2] (5 mg/kg/day subcutaneous infusion, after 4 weeks, mean±SEM), the “maximal diameter of the suprarenal aorta region” value was 1.78±0.18 mm. In addition, the “ECM degradation / elastin fiber degradation” value in experiment [2] (5 mg/kg/day, 4 weeks, VVG staining, grade 1 to 4) is given as “prominent”.
